What was measured:
[1] = Crossover interaction study: effect of repeated doses of teriflunomide on the pharmacokinetics of a single dose of rosuvastatin in healthy male subjects; type: in vivo, human
Protocol: A single-center, open-label, 1-sequence, 2-period, 2-treatment crossover study with a 5-day washout between periods was conducted in 15 healthy male subjects aged 18 to 45 to evaluate the effect of repeated doses of teriflunomide on the pharmacokinetics (PK) of a single dose of rosuvastatin 10 mg. All subjects received the following treatments during each period: • 1. Period 1: A single 10 mg dose of rosuvastatin was administered in fasted state followed by a 5-day washout (from Days 1 to 6). Day 6 corresponded to Day 1 of Period 2. • 2. Period 2: A loading dose of 70 mg teriflunomide was administered once a day for 4 days (Days 1 to 4), followed by 14 mg once a day for 8 days (Days 5 to 12) in fed conditions except for Day 12. A single dose of 10 mg rosuvastatin was co-administered with teriflunomide on Day 12 in fasted conditions.
The following PK parameters were calculated using noncompartmental methods from plasma rosuvastatin concentration obtained after single dose administration:
Rosuvastatin: Area under the plasma concentration versus time curve (AUC) from time zero to the real time corresponding to the last concentration above the lower limit of quantitation, tlast, (AUClast) and area under the plasma concentration versus time curve extrapolated to infinity (AUC).
Rosuvastatin: Maximum plasma concentration (Cmax) observed, time to reach maximum concentration (Tmax), tlast, and terminal half-life (t1/2z).
Rosuvastatin: Blood samples were collected at predose, 0.5, 1, 2, 3, 4, 5, 6, 8, 10, 12, 24 and 36 hours postdose on Day 1 of Period 1 and Day 12 of Period 2.
Rosuvastatin plasma concentrations were determined by a validated liquid chromatography couples with tandem mass spectrometry (LC-MS/MS) method, with a LLOQ (lower limit of quantification) of 50.1 pg/mL. Teriflunomide plasma concentrations were determined with a validated LC-MS/MS method with an LLOQ of 0.01 μg/mL.
Rosuvastatin PK parameters and teriflunomide Ctrough (trough plasma concentration) were summarized with descriptive statistics for each treatment.

[2] = target: T1, BCRP (Homo sapiens, UniProt Q9UNQ0); assay: In vitro inhibition of BCRP
T1 sequence (Q9UNQ0 1-655): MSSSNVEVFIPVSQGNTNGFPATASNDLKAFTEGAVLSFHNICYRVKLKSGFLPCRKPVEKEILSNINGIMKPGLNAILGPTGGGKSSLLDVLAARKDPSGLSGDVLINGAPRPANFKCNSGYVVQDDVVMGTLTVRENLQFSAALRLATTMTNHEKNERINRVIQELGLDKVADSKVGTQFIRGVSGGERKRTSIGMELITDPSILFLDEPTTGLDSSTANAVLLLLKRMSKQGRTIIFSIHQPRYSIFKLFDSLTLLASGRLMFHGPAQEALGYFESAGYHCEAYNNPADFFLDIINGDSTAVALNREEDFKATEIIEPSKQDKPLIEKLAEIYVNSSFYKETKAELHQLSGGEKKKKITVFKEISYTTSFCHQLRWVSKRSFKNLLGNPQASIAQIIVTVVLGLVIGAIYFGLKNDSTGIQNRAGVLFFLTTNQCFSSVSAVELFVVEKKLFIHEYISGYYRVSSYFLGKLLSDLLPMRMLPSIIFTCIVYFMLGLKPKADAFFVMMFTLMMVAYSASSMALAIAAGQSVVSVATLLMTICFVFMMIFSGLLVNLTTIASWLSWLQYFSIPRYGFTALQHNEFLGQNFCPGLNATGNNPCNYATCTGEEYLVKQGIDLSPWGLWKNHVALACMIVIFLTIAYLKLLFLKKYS
Text: (§1) The use of teriflunomide for treating multiple sclerosis is described in U.S. Pat. No. 6,794,410.

[3] = target: T2, OATP1B3 (Homo sapiens, UniProt Q9NPD5); assay: In vitro inhibition of OATP1B3
T2 sequence (Q9NPD5 1-702): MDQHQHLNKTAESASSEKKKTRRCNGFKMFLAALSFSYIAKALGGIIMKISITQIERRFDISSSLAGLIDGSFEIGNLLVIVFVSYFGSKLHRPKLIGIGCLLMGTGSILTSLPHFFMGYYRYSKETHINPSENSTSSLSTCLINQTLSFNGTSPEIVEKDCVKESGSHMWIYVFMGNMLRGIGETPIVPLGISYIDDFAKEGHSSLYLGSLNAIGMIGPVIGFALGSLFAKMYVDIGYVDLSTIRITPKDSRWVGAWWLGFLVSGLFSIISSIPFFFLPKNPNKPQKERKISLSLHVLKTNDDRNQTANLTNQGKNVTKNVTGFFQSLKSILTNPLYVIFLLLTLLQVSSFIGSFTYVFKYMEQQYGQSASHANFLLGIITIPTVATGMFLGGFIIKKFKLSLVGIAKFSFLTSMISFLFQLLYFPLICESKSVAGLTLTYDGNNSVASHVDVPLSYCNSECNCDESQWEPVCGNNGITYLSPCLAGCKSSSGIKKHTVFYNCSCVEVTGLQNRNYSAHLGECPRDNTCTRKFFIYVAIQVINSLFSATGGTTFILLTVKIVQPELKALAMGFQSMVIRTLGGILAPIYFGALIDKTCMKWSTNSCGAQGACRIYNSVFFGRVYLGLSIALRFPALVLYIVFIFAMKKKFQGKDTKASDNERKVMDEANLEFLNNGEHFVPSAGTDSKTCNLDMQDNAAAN
Text: as §1

[4] = target: T3, human OATP1B1 (Homo sapiens, UniProt Q9Y6L6); assay: In vitro inhibition of human OATP1B1
T3 sequence (Q9Y6L6 1-691): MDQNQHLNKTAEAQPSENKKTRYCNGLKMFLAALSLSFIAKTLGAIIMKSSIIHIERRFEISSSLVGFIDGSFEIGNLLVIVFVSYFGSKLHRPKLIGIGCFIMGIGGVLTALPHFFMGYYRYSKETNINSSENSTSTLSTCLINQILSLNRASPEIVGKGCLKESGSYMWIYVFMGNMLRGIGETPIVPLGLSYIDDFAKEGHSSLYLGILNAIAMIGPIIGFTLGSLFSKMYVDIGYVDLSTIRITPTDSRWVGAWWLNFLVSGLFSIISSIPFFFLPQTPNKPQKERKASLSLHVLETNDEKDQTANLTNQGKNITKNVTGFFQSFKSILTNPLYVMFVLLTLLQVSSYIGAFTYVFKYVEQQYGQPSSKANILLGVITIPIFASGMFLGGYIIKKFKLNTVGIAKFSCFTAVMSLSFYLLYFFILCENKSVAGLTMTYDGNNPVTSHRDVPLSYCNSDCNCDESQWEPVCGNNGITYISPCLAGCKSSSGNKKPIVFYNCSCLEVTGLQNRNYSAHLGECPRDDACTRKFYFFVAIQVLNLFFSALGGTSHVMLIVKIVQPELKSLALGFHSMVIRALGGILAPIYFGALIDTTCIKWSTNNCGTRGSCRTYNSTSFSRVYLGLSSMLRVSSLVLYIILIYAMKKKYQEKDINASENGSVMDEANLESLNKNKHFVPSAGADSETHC
Text: as §1

[5] = target: T4, OAT3 (Homo sapiens, UniProt Q8TCC7); assay: In vitro inhibition of OAT3
T4 sequence (Q8TCC7 1-542): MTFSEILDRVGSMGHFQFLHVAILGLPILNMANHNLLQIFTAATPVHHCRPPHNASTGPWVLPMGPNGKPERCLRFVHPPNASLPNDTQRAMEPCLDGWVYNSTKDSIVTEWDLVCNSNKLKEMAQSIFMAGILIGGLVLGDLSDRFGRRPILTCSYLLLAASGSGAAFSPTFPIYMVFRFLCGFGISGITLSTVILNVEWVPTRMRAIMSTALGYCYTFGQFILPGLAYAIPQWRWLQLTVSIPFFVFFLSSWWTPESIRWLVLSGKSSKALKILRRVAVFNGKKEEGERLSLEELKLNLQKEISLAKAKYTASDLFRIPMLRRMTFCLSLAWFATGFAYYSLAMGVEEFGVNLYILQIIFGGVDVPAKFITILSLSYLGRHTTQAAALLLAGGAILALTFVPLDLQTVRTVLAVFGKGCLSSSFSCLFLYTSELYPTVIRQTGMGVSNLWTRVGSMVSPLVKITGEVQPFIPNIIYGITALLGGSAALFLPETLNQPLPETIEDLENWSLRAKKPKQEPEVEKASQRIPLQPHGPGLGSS
Text: as §1

[6] = following teriflunomide 70 mg QD for 4 days and 14 mg QD for 8 days

IC50 [2] | IC50 [3] | IC50 [4] | IC50 [5] | SMILES | Increase in mean rosuvastatin AUC [1, 6] | Increase in mean rosuvastatin Cmax [1, 6] | AUC(0-t) ([1]; male, human, plasma, rosuvastatin 10 mg alone, mean ± SD, N=15, read-out: Rosuvastatin AUClast) | Tmax ([1]; male, human, plasma, rosuvastatin 10 mg alone, median (min-max), N=15) | Cmax ([1]; male, human, rosuvastatin 10 mg single dose alone, fasted, Day 1 Period 1, plasma, mean ± SD, N=15) | Rosuvastatin t1/2z ([1]; rosuvastatin 10 mg alone, mean ± SD, N=15)
 |  |  |  | CC(C)c1nc(N(C)S(C)(=O)=O)nc(-c2ccc(F)cc2)c1/C=C/[C@@H](O)C[C@@H](O)CC(=O)O [Rosuvastatin] | 2.51 fold | 2.65 fold | 31.5 ± 16.4 ng·h/mL | 3 h | 3.65 ± 1.78 ng/mL | 11.1 ± 2.99 h
0.15 µM | 7.04 µM | 7.1 µM | 1.3 µM | C/C(O)=C(\C#N)C(=O)Nc1ccc(C(F)(F)F)cc1 [Teriflunomide, (Z)-2-cyano-3-hydroxy-but-2-enoic acid-(4′-trifluoromethylphenyI)-amide] |  |  |  |  |  | 

— patent publication US9186346B2, “Methods for reducing the risk of an adverse teriflunomide and rosuvastatin interaction in multiple sclerosis patients” (SANOFI, priority 2013, dated 2015)
